In US20230202995A1, “HIGH EFFICIENT SEX PHEROMONE LURES FOR ECTROPIS OBLIQUE AND ECTROPIS GRISESCENS” (CHANGZHOU UNIVERSITY, priority 2021, published 2023):

Tested on: E. oblique
Assay: Field trapping test with sex pheromone lures in traps, tea plantation
Format: in vivo, Ectropis oblique
Conditions: lures with (3Z,6Z,9Z)-octadecatriene
Method: Embodiment 9: Field trapping tests were carried out at a tea plantation of Jintan Xinpin Tea Industry Co., Ltd., Changzhou City, Jiangsu Province. Sex pheromone lures used in the tests were made according to the schemes described in Embodiments 3-8, and a blank control was a lure made of n-hexane. The sex pheromone lure was used with a trap, each treatment process was repeated 3 times, and the number of trapped male pests in one month was counted.
(§1) Embodiment 50: Field trapping tests were carried out at the tea plantation of Jintan Xinpin Tea Industry Co., Ltd., Changzhou City, Jiangsu Province. Sex pheromone lures used in the test were made according to the schemes described in Embodiments 10-49, and a blank control was the lures made of n-hexane. The sex pheromone lures were used with a trap, each treatment process was repeated for 3 times, and the number of trapped insects in one month was counted.
as §1, with “53:” for “50:”, “51-52,” for “10-49,”, “in Embodiment 12.” for “of n-hexane.”, “lure was” for “lures were”, “repeated” for “repeated for”
as §1, with “54:” for “50:”, “Embodiment 12.” for “Embodiments 10-49, and a blank control was the lures made of n-hexane.”, “lure was” for “lures were”

| Compound | Trapping effect on E. oblique (in words) |
| --- | --- |
| CC/C=C\C/C=C\C[C@H]1O[C@H]1CCCCCCCC [(3Z,6Z,9R,10S)-9,10-epoxy-octadecadiene] | no trapping effect at all |
| CC/C=C\C/C=C\C[C@@H]1O[C@@H]1CCCCCCCC [(3Z,6Z,9S,10R)-9,10-epoxy-octadecadiene] | no trapping effect at all |
| CC/C=C\C[C@H]1O[C@H]1C/C=C\CCCCCCCC [(3Z,9Z,6R,7S)-6,7-epoxy-octadecadiene] | certain trapping capacity |
| CC/C=C\C[C@@H]1O[C@@H]1C/C=C\CCCCCCCC [(3Z,9Z,6S,7R)-6,7-epoxy-octadecadiene] | certain trapping capacity |
| CCCCCCCC/C=C\C/C=C\C[C@@H]1O[C@@H]1CC [(6Z,9Z,3R,4S)-3,4-epoxy-octadecadiene] | no trapping effect at all |
| CCCCCCCC/C=C\C/C=C\C[C@H]1O[C@H]1CC [(6Z,9Z,3S,4R)-3,4-epoxy-octadecadiene] | no trapping effect at all |
